Measured values: patent publication US8008325B2, “Plasma carboxypeptidase B inhibitors” (Bayer Schering Pharma AG, priority 2002, dated 2011)

Key:
[1] = molecular target: T1, activated plasma carboxypeptidase B (Homo sapiens, UniProt Q96IY4); experiment: Assay for activated plasma carboxypeptidase B activity (hippuryl-Arg hydrolysis, colorimetric); format: biochemical; conditions: used as positive standard; hippuryl-Arg final 1 mM
T1 sequence (Q96IY4 115-423): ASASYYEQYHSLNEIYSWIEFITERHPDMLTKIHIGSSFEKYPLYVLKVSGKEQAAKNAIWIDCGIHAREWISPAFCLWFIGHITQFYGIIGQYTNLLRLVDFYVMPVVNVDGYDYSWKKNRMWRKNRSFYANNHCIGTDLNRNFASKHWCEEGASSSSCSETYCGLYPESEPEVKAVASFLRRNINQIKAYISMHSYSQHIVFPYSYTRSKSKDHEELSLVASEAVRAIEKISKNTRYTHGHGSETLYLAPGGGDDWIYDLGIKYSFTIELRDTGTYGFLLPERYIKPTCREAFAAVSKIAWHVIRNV
Procedure: The compounds of the invention were tested in an in vitro assay according to the method described in Hendriks et al., “Colorimetric assay for carboxypeptidase N in serum”, Clinica Chimica Acta (1986), Vol. 157, pp. 103-108 and Zhao et al., “Identification and characterization of two thrombin-activatable fibrinolysis inhibitor isoforms”, Thromb. Haemost. (1998), Vol. 80, pp. 949-955.
Activation of Plasma Carboxypeptidase B:
The following reagents were mixed together at a total volume of 200 μL:
The above mixture was incubated for 15 minutes at ambient temperature. The activation process was stopped by the addition of 2 μl of PPACK, D-Phe-Pro-Arg chloromethylketone (100 μM, final 1.0 μM). The mixture was then diluted 1:36 with the activation buffer containing 0.1% BSA. The resulting diluted mixture was kept on ice. […] The resulting sample mixture was incubated for 2 minutes at ambient temperature. To the sample mixture was added 12 μL of 5 mM hippuryl-Arg (final 1 mM (=Km)). The resulting sample mixture was incubated at ambient temperature for 30 minutes. At the end of the reaction, the product, hippuric acid, in the sample mixture was converted to a chromogen by adding the following to the mixture: • 80 μL of 0.2 M sodium phosphate buffer, pH 8.3 • 60 μL of 3% cyanuric chloride in dioxane (w/v). […] Optical density of the samples was measured at 382 nm.

[2] = molecular target: T2, plasma carboxypeptidase B (Homo sapiens, UniProt Q96IY4); conditions: t-PA-induced lysis; cited from earlier work
T2 sequence (Q96IY4 115-423): T1 sequence (Q96IY4 115-423)

IC50 [1]: 35 µM
Compound: NC(N)=NCCSC(CC(=O)O)C(=O)O (centres unmarked) [GEMSA, guanidinoethyl-mercaptosuccinic acid]
effect on the inhibitory effect of plasma carboxypeptidase B on clot lysis [2]: blocked the inhibitory effect of plasma carboxypeptidase B on clot lysis
